One test relates to 5XFAD mice. The experiment in a line: Object recognition memory test. It is filed as in vivo, mouse. Conditions: continuous intraventricular infusion for 28 days keeping 10 nM in cerebrospinal fluid, 24 hours interval between training and testing, P<0.05. From the text:
Alzheimer's disease model mice: Transgenic mice that are animal models for Alzheimer's disease (5XFAD) were obtained from the Jackson Laboratories (Bar Harbor, Me., USA). 5XFAD mice overexpress human APP695 cDNA having mutations of Swedish (K670N and M671L), Florida (I716V), and London (V717I), and human PS1 cDNA (mutations at M146L and L286V) under transcriptional control of the neuron-specific murine Thy-1 promoter (Oakley, H. et al., J Neurosci, 26, 10129-10140, 2006). Those were maintained by crossing B6/SJL F1 breeders with hemizygous transgenic mice. […]
GPPGPAG (SEQ ID NO: 1) was dissolved in an artificial cerebrospinal fluid, and an osmotic minipump model 1004 (ALZET Osmotic Pumps, Cupertino, USA) containing the solution inserted and fixed into the right lateral ventricle of each 5XFAD mouse to inject the solution into the lateral ventricle continuously for 28 days. […] Specifically, from a peptide flow of 0.11 μL/h from the pump and a production of cerebrospinal fluid of 18 μL/h in the mouse, the concentration of the peptide solution was calculated such that the peptide concentration in the murine cerebrospinal fluid would be kept at 10 nM (which was an effective concentration in the cell experiments), and the solution prepared thereby was loaded into the pump. […]

Test [1] deals with Aβ25-35-treated murine cerebral cortical neural cells. The experiment in a line: Quantitative experiment for presynaptic density. The class given is cell-based, ddY mouse. The settings on record: 21-day culture. The protocol: (§1) Murine cerebral cortical neural cells were prepared by the following method. Fetuses extracted from a 14-day […] ddY mouse (Japan SLC, Shizuoka) were washed with PBS, then decapitated, and added in a medium made for primary culture [12% equine serum (Life Technologies), 2 mM L-glutamic acid, and 0.6% glucose dissolved in Neurobasal media (Life Technologies, Carlsbad, Calif., USA)]. Only cerebral cortex was isolated in the medium under a stereomicroscope (SZ-61, Olympus, Tokyo).
(§2) Cerebral cortex was cut into about 1 mm-sized cubes in a safety cabinet. Centrifugation was performed at 700 rpm for 3 minutes, then the supernatant was removed, and to the precipitate was added 2 mL of 0.05% trypsin-0.53 mM EDTA solution (Life Technologies) to make a suspension. The suspension was incubated at 37° C. for 15 minutes with stirring for every 5 minutes, loaded with 4 mL of the medium, centrifuged at 700 rpm for 3 minutes to remove the supernatant, and to the precipitate was added 2 mL of 600 U/mL DNase I (Wako Pure Chemical Co., Ltd)-0.03% trypsin inhibitor (Life Technologies)-PBS solution to make a suspension.
(§3) The suspension was further incubated at 37° C. for 15 minutes with stirring for every 5 minutes, loaded with 4 mL of the medium, and centrifuged at 700 rpm for 3 minutes. The sediment was loaded with 4 mL of a calcium-magnesium-free Hank's balanced salt solution (HBSS), and centrifuged at 700 rpm for 3 minutes. 4 mL of the medium was added to the sediment.
The sediment loaded with the medium was gently suspended with a Pasteur pipette in which its tip had been heated and smoothed, until the cell clumps were invisible, and then filtrated with a 70 μm nylon cell strainer (Falcon, N.J., USA). Cell culture was performed in an 8-well chamber slide (falcon). […]
Immunostaining for quantifying presynaptic density was performed as follows. […]

For test [2] the test system is unchanged. The experiment in a line: Quantitative experiment for dendritic elongation. It is filed as cell-based, ddY mouse. Conditions: compared with Vehicle. The protocol:
as §1, §2, §3
The sediment loaded with the medium was gently suspended with a Pasteur pipette in which its tip had been heated and smoothed, until the cell clumps were invisible, and then filtrated with a 70 μm nylon cell strainer (Falcon, N.J., USA). Cell culture was performed in an 8-well chamber slide (falcon). Cells were seeded into the one coated the day before [in which Poly-D-Lysine (PDL, Wako Pure Chemical Co., Ltd) diluted with PBS to 0.005 mg/mL was plated and incubated at 37° C.; on the day of culture, it was washed twice with sterilized purified water.] Culture was started at 37° C. and 10% CO2 under saturated vapor.
In quantitative experiment for dendritic elongation, the medium was all changed with a fresh medium containing B-27 supplement (Invitrogen) instead of equine serum 5 hours and 3 days after start of culture. At medium change after 3 days, the pre-aggregated partial sequence fragment of amyloid beta (Aβ25-35) was added up to 10 μM. After another 3 days, each peptide or solvent was added when the medium was all changed into a fresh one, and after another 4 days, immunostaining was performed.
Immunostaining for quantifying dendritic elongation was performed as follows. After the end of the drug treatment term, the medium was removed and the cells were washed with PBS, added with 4% paraformaldehyde (PFA, Wako Pure Chemical Co., Ltd)-PBS solution, left standing at room temperature for an hour, and fixed. Wash with 0.3% triton X-100 (Wako Pure Chemical Co., Ltd)-PBS solution for 5 minutes was performed twice. Then, a primary antibody solution (0.3% triton X-100-PBS solution, 1% normal goat serum [Wako Pure Chemical Co., Ltd], a primary antibody) was added, and reacted at 4° C. overnight.
For the primary antibody, rabbit anti-MAP2 polyclonal antibody (1:2000) (Abcam, Cambridge, UK) was used. The next day, the primary antibody solution was removed; wash was performed twice with 0.3% triton X-100-PBS solution for 5 minutes; and then a secondary antibody solution [0.3% triton X-100-PBS solution, Alexa Fluor 488-labeled goat anti-rabbit IgG antibody (1:200) (Molecular Probes, Eugene, Oreg., USA)] was added, and reacted under shading at room temperature for 2 hours. After the reaction, the secondary antibody solution was removed, and the cells were washed twice with PBS for 5 minutes, stained for nuclei with DAPI staining, and then embedded with Aqua-Poly/Mount (Polysciences, Warrington, USA). […]

Setting [3] is: posttreatment with 10 nM peptide for 4 days after 10 μM Aβ25-35 for 3 days.
Setting [4] is: posttreatment with 1 nM peptide for 4 days after 10 μM Aβ25-35 for 3 days.

Consider GPPGPAG (P1), for which, in the test with 5XFAD mice, the “exploratory preferential index at the testing stage relative to the training stage” value is “significantly increased”. For the same substance, the “presynaptic density on dendrites (synaptophysin-positive area per dendrite length)” value was “concentration-dependent increase in presynaptic density” in test [1] (posttreatment with 1 nM, 10 nM and 100 nM, 10 μM Aβ25-35 for 3 days, peptide for 4 days); “significant increase” in test [1] (posttreatment with 10 nM, 10 μM Aβ25-35, compared with Vehicle); “significant increase” in test [1] (posttreatment with 100 nM, 10 μM Aβ25-35, compared with Vehicle). Moreover, in test [2] (setting [3]), the “density of dendrites (length of MAP2-positive dendrites per neural cell)” value is listed as “significant increase in density of dendrites”.
Turning to “PPGPAG: comparison peptide of amino acid sequence PPGPAG (SEQ ID NO: 5) (P5)”, the “density of dendrites (length of MAP2-positive dendrites per neural cell)” value in test [2] (setting [4]) and in test [2] (setting [3]) was “neither treatment with 1 nM nor 10 nM was any effect observed” in each case.
Take GPPGPPG (P2): the “density of dendrites (length of MAP2-positive dendrites per neural cell)” value in test [2] (setting [4]) and in test [2] (setting [3]) was “neither treatment with 1 nM nor 10 nM was any effect observed” each time.
Turning to “GPPGPP: comparison peptide of amino acid sequence GPPGPP (SEQ ID NO: 3) (P3)”, the “density of dendrites (length of MAP2-positive dendrites per neural cell)” value in test [2] (setting [4]) and in test [2] (setting [3]) was “neither treatment with 1 nM nor 10 nM was any effect observed” in each case.
With “GPPGPA: comparison peptide of amino acid sequence GPPGPA (SEQ ID NO: 4) (P4)”, the “density of dendrites (length of MAP2-positive dendrites per neural cell)” value in test [2] (setting [4]) and in test [2] (setting [3]) was “neither treatment with 1 nM nor 10 nM was any effect observed” each time.

For the origin of these results see US10660935B2, “Methods for ameliorating memory impairment in a memory disorder caused by neuronal cell death or Abeta aggregation using a peptide” (JAPAN BIO PRODUCTS Co., Ltd., priority 2017, dated 2020).
